Reference: patent US9884063B2, “Amido-substituted azole compounds” (Bayer Pharma Aktiengesellschaft, priority 2014, dated 2018)

Tests used:
[1] = system: HEK293 FOP control reporter cell line; test: HEK293 FOP Assay (FOP control vector luciferase reporter); format: cell-based; conditions: Homo sapiens
Outline: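 Stable HEK293 line carrying the FOP vector (randomized, non-functional TCF sites; Geneticin-selected) was run in parallel with the TOP line. Cells were plated 24 h ahead at 10000/well and given recombinant human Wnt-3a at 2500–5 ng/ml. Compounds were tested at 50 μM–15 nM (3.16-fold steps) in CAFTY buffer, pH 7.4, with 2 mM Ca2+ and 0.01% BSA.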

TNKS2 = biological target: T1, TNKS2 (Homo sapiens, UniProt Q9H2K2); test: TNKS2 Assay 1 (TNKS2 Histone Ribosylation Assay Kit, biotin-labeled NAD+); format: biochemical; conditions: chemiluminescent readout, 384 well
T1 sequence (Q9H2K2 1-1166): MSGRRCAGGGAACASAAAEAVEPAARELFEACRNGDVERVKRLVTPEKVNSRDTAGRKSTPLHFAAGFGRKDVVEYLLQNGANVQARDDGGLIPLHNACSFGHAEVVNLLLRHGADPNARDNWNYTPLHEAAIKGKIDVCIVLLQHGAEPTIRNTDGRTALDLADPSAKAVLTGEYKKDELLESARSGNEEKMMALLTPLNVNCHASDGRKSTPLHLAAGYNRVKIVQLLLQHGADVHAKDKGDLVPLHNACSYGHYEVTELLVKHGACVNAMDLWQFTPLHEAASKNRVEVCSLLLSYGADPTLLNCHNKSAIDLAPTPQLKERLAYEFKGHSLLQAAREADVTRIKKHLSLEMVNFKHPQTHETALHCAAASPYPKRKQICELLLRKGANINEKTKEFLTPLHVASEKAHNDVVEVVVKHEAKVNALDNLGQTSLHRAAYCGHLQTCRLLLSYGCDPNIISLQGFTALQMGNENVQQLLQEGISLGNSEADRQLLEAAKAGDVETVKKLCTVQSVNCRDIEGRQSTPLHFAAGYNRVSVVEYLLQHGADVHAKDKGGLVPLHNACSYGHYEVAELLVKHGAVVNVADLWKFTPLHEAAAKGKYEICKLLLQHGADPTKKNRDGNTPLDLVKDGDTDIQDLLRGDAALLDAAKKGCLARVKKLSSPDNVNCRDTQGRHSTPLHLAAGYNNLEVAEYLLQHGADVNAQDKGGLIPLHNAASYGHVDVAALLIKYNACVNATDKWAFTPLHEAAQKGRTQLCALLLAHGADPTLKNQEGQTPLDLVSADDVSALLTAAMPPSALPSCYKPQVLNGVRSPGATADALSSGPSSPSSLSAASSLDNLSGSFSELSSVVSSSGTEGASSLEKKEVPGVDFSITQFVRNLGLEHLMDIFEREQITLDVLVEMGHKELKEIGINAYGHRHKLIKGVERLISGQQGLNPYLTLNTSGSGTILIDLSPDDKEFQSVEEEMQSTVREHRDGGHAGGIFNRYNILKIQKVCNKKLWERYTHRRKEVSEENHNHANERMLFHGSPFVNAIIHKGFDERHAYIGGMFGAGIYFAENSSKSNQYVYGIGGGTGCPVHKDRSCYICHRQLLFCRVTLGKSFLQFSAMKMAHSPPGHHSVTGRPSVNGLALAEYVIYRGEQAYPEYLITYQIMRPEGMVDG
Protocol: The potency of the compounds according to the invention was assessed applying an in vitro inhibition assay. The TNKS2 catalyzed NAD^+-dependent ribosylation of a suitable protein substrate was detected using a commercially available biotin/streptavidin binding based assay format [TNKS2 Histone Ribosylation Assay Kit (Biotin-labeled NAD+), Catalog #80572; BPS Bioscience, San Diego, USA]. Here, the incorporation of a biotin-labeled NAD+ during the TNKS2 catalyzed ribosylation reaction was detected with a streptavidin-HRP coupled chemi-luminescent readout. The intensity of the readout signal is proportional to the incorporated NAD^+. Inhibition of TNKS2 leads to a decreased incorporation of NAD^+ and consequently to a lower readout signal intensity. The concentration of a test compound which inhibits the enzyme activity by 50% (corresponds to half of the normed readout signal intensity) is reported as IC50.
The assay was conducted in a 384 well MTP format according to the manufacturer's protocol [bpsbioscience.com/poly-adp-ribose-polymerase/assay-kit/tnks2-histone-ribosylation-assay-kit-biotin-labeled-nad-80572 referencing: Brown, J. A., Marala, R. B. J. Pharmacol. Toxicol. Methods 2002 47:137-41]. and using a BMG Pherastar MTP reader [BMG-Labtech, Offenburg, Germany].

[2] = HEK293 FOP control reporter cell line, 16 hours incubation, compound dilution series 50 μM to 15 nM
[3] = HEK293 FOP control reporter cells, 16 hours, luciferase, dilution series from 50 μM

SMILES	IC50 [1, 2]	IC50 [1, 3]	IC50 (TNKS2; Table 2)	IC50 (TNKS2; first table)
CNC(=O)c1nc[nH]c1C(=O)Nc1ccc(NC(=O)c2ccccc2C)cc1 [Example 19, N^4-methyl-N^5-{4-[(2-methylbenzoyl)amino]phenyl}-1H-imidazole-4,5-dicarboxamide]	26500 nM	11000 nM	290 nM	290 nM
CNC(=O)c1nc[nH]c1C(=O)Nc1ccc(NC(=O)c2ccc(F)cc2Cl)cc1 [Example 12, N^5-{4-[(2-chloro-4-fluorobenzoyl)amino]phenyl}-N^4-methyl-1H-imidazole-4,5-dicarboxamide]		≥ 50000 nM	20 nM	20 nM
CCC(C)NC(=O)c1ncoc1C(=O)Nc1ccc(NC(=O)c2ccc(F)cc2Cl)cc1 (stereo not shown) [Example 7, N^4-sec-butyl-N^5-{4-[(2-chloro-4-fluorobenzoyl)amino]phenyl}-1,3-oxazole-4,5-dicarboxamide]	45000 nM	45000 nM	19000 nM	19100 nM
CNC(=O)c1nc[nH]c1C(=O)Nc1ccc(NC(=O)c2c(Cl)cccc2Cl)cc1 [Example 26, N^5-{4-[(2,6-dichlorobenzoyl)amino]phenyl}-N^4-methyl-1H-imidazole-4,5-dicarboxamide]		≥ 50000 nM	160 nM	160 nM
O=C(Nc1ccc(NC(=O)c2[nH]cnc2C(=O)NCC(F)(F)F)cc1)c1ccc(F)cc1Cl [Example 30, N^4-{4-[(2-chloro-4-fluorobenzoyl)amino]phenyl}-N^5-(2,2,2-trifluoroethyl)-1H-imidazole-4,5-dicarboxamide]		37500 nM	70 nM	70 nM
CNC(=O)c1nc[nH]c1C(=O)Nc1ccc(NC(=O)c2ccc(F)cc2Cl)nc1 [Example 16, N^5-{6-[(2-chloro-4-fluorobenzoyl)amino]pyridin-3-yl}-N^4-methyl-1H-imidazole-4,5-dicarboxamide]		≥ 50000 nM	40 nM	40 nM
CC(C)NC(=O)c1nc[nH]c1C(=O)Nc1ccc(NC(=O)c2ccc(F)cc2Cl)cc1 [Example 10, N^5-{4-[(2-chloro-4-fluorobenzoyl)amino]phenyl}-N^4-isopropyl-1H-imidazole-4,5-dicarboxamide]	46000 nM	≥ 50000 nM	230 nM	230 nM
CNC(=O)c1nc[nH]c1C(=O)Nc1ccc(NC(=O)c2cccc(Cl)c2Cl)cc1 [Example 1, N^5-{4-[(2,3-dichlorobenzoyl)amino]phenyl}-N^4-methyl-1H-imidazole-4,5-dicarboxamide]	24000 nM	25000 nM	20 nM	20 nM
COC(=O)c1ncoc1C(=O)Nc1ccc(NC(=O)c2ccc(F)cc2Cl)cc1 [Example 14, Methyl 5-({4-[(2-chloro-4-fluorobenzoyl)amino]phenyl}carbamoyl)-1,3-oxazole-4-carboxylate]		≥ 50000 nM	300 nM	300 nM
CNC(=O)c1nc[nH]c1C(=O)Nc1ccc(NC(=O)c2ccccc2Cl)cc1 [Example 27, N^5-{4-[(2-chlorobenzoyl)amino]phenyl}-N^4-methyl-1H-imidazole-4,5-dicarboxamide]		≥ 50000 nM	40 nM	40 nM
